The data set relates to esterase. Nature of the data set: Half-life time was determined for esterase-catalyzed hydrolysis of the phenol ester bond in porcine liver esterase. It is filed as ADME, Sus scrofa. To be noted: pig.

Structures are written as SMILES.

For orientation: half-life means the time in which the quantity being followed falls by half. A lower half-life goes with fast loss.

The compound `CC(C)C[C@H]1NC(=O)Oc2ccccc2/C=C\C(=O)NC(=O)[C@H](Cc2ccc(O)cc2)NC(=O)[C@@H](C)NC(=O)CNC(=O)[C@H](Cc2ccccc2)NC1=O` returned a half-life of 12.7 h.

The values are drawn from ChEMBL document CHEMBL1128937, “Coumarin-based prodrugs 2. Synthesis and bioreversibility studies of an esterase-sensitive cyclic prodrug of dadle, an opioid peptide” (Bioorg Med Chem Lett, 1996).
